Where two headings read alike, the source gives them in different places.
Experiments:
[1] = target: steroid 5α-reductase; details: cited from earlier work; for Ki: read-out: K1; for mode of inhibition (in words): literature statement in text; for reversibility of inhibition (Reversible / Irreversible): printed in parentheses beside K1
[2] = target: T1, human steroid 5α-reductase (Homo sapiens, UniProt P31213); experiment: Inhibition of human prostatic steroid 5α-reductase ([14C]-testosterone conversion, Dixon analysis); type: biochemical
T1 construct: using tissue from hyperplastic human prostates; from tissue; host or cells: frozen human prostates (hyperplastic), washed particulate fraction from differential centrifugation
T1 sequence (P31213 1-254): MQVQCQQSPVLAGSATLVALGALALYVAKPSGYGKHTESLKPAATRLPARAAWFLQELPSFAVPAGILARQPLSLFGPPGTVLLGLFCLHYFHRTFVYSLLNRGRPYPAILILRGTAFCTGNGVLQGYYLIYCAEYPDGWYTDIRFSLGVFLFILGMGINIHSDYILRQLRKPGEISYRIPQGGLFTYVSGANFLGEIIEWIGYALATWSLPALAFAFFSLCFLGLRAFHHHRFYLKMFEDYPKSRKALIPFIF
Procedure: In determining potency in inhibiting the human enzyme, the following procedure was employed:
The resulting pellet was suspended in 20 mM potassium phosphate buffer, pH 6.5, containing 20% glycerol, 1 mM dithiothreitol, and 50 μM NADPH. The suspended particulate solution was stored at -80° C.
To each tube was added buffer, 20 μl of 10 mM NADPH and an aliquot of prostatic particulate solution to a final volume of 1.0 ml of 50 mM sodium citrate, pH 5.0. After incubating the solution at 37° C. for 20 to 30 minutes the reaction was quenched by the addition of 4 ml ethyl acetate and 0.25 μmol each of testosterone, dihydrotestosterone, androstanediol, and androstanedione as carriers. […] The radiochemical content in the bands of the substrate and the products was determined with a BIOSCAN Imaging Scanner (Bioscan, Inc., Washington, D.C.). The percent of recovered radiolabel converted to product was calculated, from which enzyme activity was determined. […]
The experimentally obtained data was computer fitted to a linear function by plotting the reciprocal of the enzyme activity (1/velocity) against the variable inhibitor concentration (Dixon, M. (1953), Biochem. J., 55, 170). Assuming that the steroidal inhibitor is a competitive inhibitor against testosterone, a value for the inhibition constant (Ki) can be calculated from equation 1: […]

[3] = 5α-reductase inhibitors, literature reference given per compound

| SMILES | Ki [1, 3] | reversibility of inhibition (Reversible / Irreversible) [1] | other results |
| --- | --- | --- | --- |
| C=C1C[C@@H]2[C@H](CC[C@@]3(C)[C@H]2CC[C@]3(OC(C)=O)C(C)=O)[C@@]2(C)CCC(=O)C=C12 [(5)] | 1.25 µM | Irreversible | mode of inhibition (in words) [1]: time dependent inactivator of steroid 5α-reductase |
| CCN(CC)C(=O)[C@H]1CC[C@H]2[C@@H]3CC[C@H]4N(C)C(=O)CC[C@]4(C)[C@H]3CC[C@]12C [(4)] | 0.005 µM | Reversible |  |
| CC(C)N(C(=O)[C@H]1CC[C@H]2[C@@H]3CCC4=CC(P(=O)(O)O)=CC[C@]4(C)[C@H]3CC[C@]12C)C(C)C [Example 30, 17β-(N,N-diisopropylcarboxamide)-androst-2,4-diene-3-phosphonic acid] |  |  | Ki [2]: 0.16 µM |
| CC(C)N(C(=O)[C@H]1CC[C@H]2[C@@H]3CC=C4C=C(P(=O)(O)O)CC[C@]4(C)[C@H]3CC[C@]12C)C(C)C [Example 1, 17β-(N,N-diisopropylcarboxamide)-androst-3,5-diene-3phosphonic acid] |  |  | Ki ([2]; hyperplastic human prostate particulate, pH 5.0, 37° C., 20 to 30 minutes, competitive inhibition against testosterone assumed, read-out: Ki (inhibition constant of human prostatic steroid 5α-reductase)): 0.015 to 0.04 µM |
| C[C@]12CC[C@H]3[C@@H](CCC4=CC(=O)CC[C@@]43C)[C@@H]1CC[C@@H]2C(=O)O [(1)] | 1.1 µM | Reversible |  |
| CC(CO)[C@H]1CC[C@H]2[C@@H]3CC[C@H]4C(=[N+]=[N-])C(=O)CC[C@]4(C)[C@H]3CC[C@]12C (some centres unmarked) [(3)] |  | Irreversible | mode of inhibition (in words) [1]: potent, time-dependent inhibitor of steroid 5α-reductase; Ki ([1]; unit inferred, Blohm, et al., 1980): 0.035 µM |
| CC(=O)C1CCC2C3CC=C=CC(=O)CCC(=O)C3CCC12C (centres unmarked) [(2)] | 1 µM | Irreversible |  |

Source: patent publication US4946834A, “Phosphonic acid substituted steroids as steroid 5α-reductase inhibitors” (priority 1988, dated 1990)
